The values that follow come from patent publication US20240174723A1, “STAPLED ANTIMICROBIAL PEPTIDES (STAMPS) AND USES THEREOF” (Lytica Therapeutics, Inc., priority 2021, published 2024).

The subject of one data set is P. aeruginosa. In kind it is cell-based, Pseudomonas aeruginosa. In short, it runs like this: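 MIC taken as lowest peptide concentration with no visible growth after 20-24 h at 37 °C. Peptide serial dilutions from water stocks met P. aeruginosa inoculum (5×10^5 CFU/ml final) in MHB or MHB II, per a CLSI-adapted microbroth protocol.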
A further data set relates to E. coli. Type of data set: cell-based, Escherichia coli. In short, it runs like this: (§1)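 Colonies are grown overnight at 37 °C, diluted and regrown 3-4 h. Bacteria in MHB or MHB II are then added to serial peptide dilutions to reach 5×10^5 CFU/ml. Plates are incubated 20-24 h at 37 °C and scored for the lowest concentration without visible growth.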
Another data set has as its system K. pneumoniae. Type of data set: cell-based, Klebsiella pneumoniae. In short, it runs like this:
as §1

A further data set concerns S. aureus. In kind it is cell-based, Staphylococcus aureus. In short, it runs like this: as §1
The nature of data set [1]: in vitro. In kind it is cell-based. As to conditions: human, Inhibitory Concentration at 50% Cytotoxicity (IC50) Human Liver Cells (HepG2). In short, it runs like this:
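Cytotoxicity read by CellTiter-Glo luminescence after 48 h at 37 °C exposure to serially diluted StAMPs or vehicle. HepG2 cells were grown in EMEM plus 10% FBS and given 4 h to attach before dosing; peptides came from a 5 mg/mL aqueous stock.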

In the next data set the test system is A. baumannii. In kind it is cell-based, Acinetobacter baumannii. An outline of the steps:
as §1

Data set [2] can be described thus: in vitro. In kind it is cell-based. Particulars: human. How it is done: Cell culture: RPTEC were maintained in MEM media supplemented with growth factors. HEPG2 cell line was maintained in Eagle's Minimum Essential Medium (EMEM) supplemented with fetal bovine serum to a final concentration of 10%.
90 minute cytotoxicity assay: Cells were plated in a 96-well format, and after overnight incubation, media was replaced with fresh media. Serial dilutions of StAMPs from a 5 mg/mL water stock, or vehicle, were added to the cells in a final volume of 100 μl. After incubating at 37° C. for 90 min, 50 μl of cell culture media was transferred to a clear 96-well plate, incubated with 50 μl of lactate dehydrogenase (LDH) assay reagent for 10 min, and absorbance measured at 490 nm on a microplate reader.
Renal toxicity was measured after 90 minutes of incubation, while liver toxicity was measured after 48 hours of incubation with StAMPs. N/A=not tested. The following apply to all peptides (i.e., StAMPs) listed in Tables A-C: Crosslinks (X^1—X^2 and X^3—X^4): (alk); N-terminus: —NH2; C-terminus: amidated with —NH2; counterion: Cl^−. The following apply to all peptides (i.e., StAMPs) listed in Table D: Crosslinks (X^1—X^2 and X^3—X^4): (alk); N-terminus: —NH2; C-terminus: as shown in table; counterion: Cl^−.
StAMP Micelle Formulation: DSPE-MPEG(2000) was suspended in buffered saline at 50-100 mg/mL overnight. StAMP stock solutions at 5-20 mg/mL in buffered saline were prepared and equal volumes of micelle and StAMP stock solution were mixed at the desired StAMP:Lipid ratio. Suspensions were allowed to sit for 5-10 minutes at room temperature before being used in in vitro and in vivo assays.
In Table E, the StAMP is StAMP 4 (Table A) and “Lipid”=DSPE-MPEG(2000).

Each structure is given as a SMILES string. Values after ≈ are worked out from the molar mass of the structure shown. Positions of bridges follow the written chain, without caps; N, C: chain ends. Non-standard residues stand in square brackets, D forms with d. Residues, ends and D or L forms follow the SMILES beside them. S5 = C=CCCC[C@](C)(N)C(=O)O Bounds are passed on as bounds.

Take `CC(C)[C@@H]1NC(=O)[C@@](C)(NC(=O)[C@H](C)NC(=O)[C@H](CCCCN)NC(=O)CNC(=O)[C@H](Cc2ccccc2)NC(=O)[C@H](CCCCN)NC(=O)[C@H](CCCCN)NC(=O)[C@H](CCCCN)NC(=O)[C@H](CCCCN)NC(=O)[C@H](CCCCN)NC(=O)[C@]2(C)CCCC=CCCC[C@](C)(NC(=O)CN)C(=O)NCC(=O)N[C@@H](CCCCN)C(=O)N[C@@H](Cc3ccccc3)C(=O)N2)CCCC=CCCC[C@@](C)(C(=O)N[C@@H](C)C(=O)N[C@@H](CCCCN)C(=O)N[C@@H](CCCCN)C(N)=O)NC(=O)[C@H](CCC(=O)O)NC(=O)CNC1=O` [compound 4] (H-G[S5]GKF[S5]KKKKKFGKA[S5]VGE[S5]AKK-NH2; staple 2-6, 16-20): the “Minimum Inhibitory Concentration (MIC) P. aeruginosa” value with P. aeruginosa came to 3 µg/mL. For the same compound, the “Minimum Inhibitory Concentration (MIC) E. coli” value with E. coli worked out at 2 µg/mL. In addition, the “Minimum Inhibitory Concentration (MIC) K. pneumoniae” value in the data set with K. pneumoniae amounted to 6 µg/mL. The “Minimum Inhibitory Concentration (MIC) S. aureus” value with S. aureus was more than 64 µg/mL. For the same compound, in “in vitro [1]”, the IC50 (commonly the concentration at which inhibition is half-maximal) at 48 hours worked out at 127 µg/mL (≈ 49.5 µM). Further, the “Minimum Inhibitory Concentration (MIC) A. baumannii” value with A. baumannii was 3 µg/mL. Further, the IC50 at 90 min in “in vitro [2]” turned out to be 105 µg/mL (≈ 40.9 µM).
On to `CC(C)[C@@H]1NC(=O)[C@@](C)(NC(=O)[C@H](C)NC(=O)[C@H](CCCCN)NC(=O)CNC(=O)[C@H](Cc2ccccc2)NC(=O)[C@H](CCCCN)NC(=O)[C@H](CCCCN)NC(=O)[C@H](CCCCN)NC(=O)[C@H](CCCCN)NC(=O)[C@H](Cc2c[nH]cn2)NC(=O)[C@]2(C)CCCC=CCCC[C@](C)(NC(=O)CN)C(=O)NCC(=O)N[C@@H](CO)C(=O)N[C@@H](Cc3ccccc3)C(=O)N2)CCCC=CCCC[C@@](C)(C(=O)N[C@@H](C)C(=O)N[C@@H](CCCCN)C(=O)N[C@@H](CCCCN)C(N)=O)NC(=O)[C@H](CCC(=O)O)NC(=O)CNC1=O` [compound 5] (H-G[S5]GSF[S5]HKKKKFGKA[S5]VGE[S5]AKK-NH2; staple 2-6, 16-20), for which the “Minimum Inhibitory Concentration (MIC) P. aeruginosa” value with P. aeruginosa came to 4 µg/mL. Besides, the “Minimum Inhibitory Concentration (MIC) E. coli” value in the data set with E. coli came to 4 µg/mL. In addition, the “Minimum Inhibitory Concentration (MIC) K. pneumoniae” value with K. pneumoniae was more than 64 µg/mL. Also, the “Minimum Inhibitory Concentration (MIC) S. aureus” value in the data set with S. aureus was more than 64 µg/mL. In addition, the 50% inhibitory concentration (IC50) at 48 hours in “in vitro [1]” is more than 200 µg/mL. Besides, in the data set with A. baumannii, the “Minimum Inhibitory Concentration (MIC) A. baumannii” value is 4 µg/mL. The same compound had an IC50 at 90 min in “in vitro [2]” of more than 200 µg/mL.
For the compound `CC(C)[C@@H]1NC(=O)[C@@](C)(NC(=O)[C@H](C)NC(=O)[C@H](CCCCN)NC(=O)CNC(=O)[C@H](Cc2ccccc2)NC(=O)[C@H](CCCCN)NC(=O)[C@H](CCCCN)NC(=O)[C@H](CCCCN)NC(=O)[C@H](CC(N)=O)NC(=O)[C@H](Cc2c[nH]cn2)NC(=O)[C@]2(C)CCCC=CCCC[C@](C)(NC(=O)CN)C(=O)NCC(=O)N[C@@H](CCCCN)C(=O)N[C@@H](Cc3ccccc3)C(=O)N2)CCCC=CCCC[C@@](C)(C(=O)N[C@@H](C)C(=O)N[C@@H](CCCCN)C(=O)N[C@@H](CCCCN)C(N)=O)NC(=O)[C@H](CCC(=O)O)NC(=O)CNC1=O` [compound 6] (H-G[S5]GKF[S5]HNKKKFGKA[S5]VGE[S5]AKK-NH2; staple 2-6, 16-20), in the data set on P. aeruginosa, the “Minimum Inhibitory Concentration (MIC) P. aeruginosa” value is 8 µg/mL. Moreover, the “Minimum Inhibitory Concentration (MIC) E. coli” value in the data set with E. coli stood at 4 µg/mL. Further, the “Minimum Inhibitory Concentration (MIC) K. pneumoniae” value with K. pneumoniae was more than 64 µg/mL. Besides, the “Minimum Inhibitory Concentration (MIC) S. aureus” value in the data set with S. aureus is more than 64 µg/mL. For the same compound, the IC50 at 48 hours in the data set “in vitro [1]” is more than 200 µg/mL. The “Minimum Inhibitory Concentration (MIC) A. baumannii” value in the data set with A. baumannii was found to be 4 µg/mL. The IC50 at 90 min in “in vitro [2]” was more than 200 µg/mL.
